From patent US10253007B2, “Taxanes compounds, preparation method therefor, and uses thereof” (Jiangsu Tasly Diyi Pharmaceutical Co., Ltd., priority 2013, dated 2019)
“Also recorded” adds a separate entry of the source. Where two headings read alike, the source gives them in different places.

Assays:
[1] = Caco-2 cell monolayer membrane transport assay; conditions: human; for recovery: Caco-2, Recovery rate in mass
From the text: (§1) Caco-2 Cell Monolayer Membrane Transport Assay
(§2) Human-derived colorectal adenocarcinoma cell line Caco-2 cell monolayer model was used to study the bidirectional transport of the target compounds from the apical (AP) side to the basolateral (BL) side and from BL side to AP side. HPLC was used for quantitative analysis to calculate transport parameters, apparent permeability coefficient (Papp) and the efflux ratio.

[2] = test system: Caco-2 cell monolayer; test: Caco-2 cell monolayer membrane transport assay; conditions: Caco-2 monolayer
From the text: as §1, §2

[3] = In vivo oral bioavailability assay (pharmacokinetics); parameters: species or system S.D. rats; conditions: rat; for AUC(0-t): 0-24 hours; for MRT inf: read-out: MRT0-∞
From the text: 3. In Vivo Oral Bioavailability Assay
The compound PCMI-31 was synthesized and detected according to the methods provided in the present invention. The internal standard, paclitaxel, was purchased from China's National Institute for the Control of Pharmaceutical and Biological Products (NICPBP). Chromatography-grade acetonitrile was purchased from Sigma-Aldrich Inc. Tween 80 and ethyl acetate were purchased from Aladdin reagent Inc. Male S.D. rats were purchased from Beijing Weitonglihua Inc. and raised in animal house for two weeks.
200 mg of PCMI-31 was dissolved in 4 ml of a mixed solution of Tween 80 and anhydrous ethanol (1:1) to prepare a stock solution at 50 mg/ml and normal saline was added to adjust to a suitable concentration. 12 male S.D. rats (about 300 g of body weight) were taken and divided into two groups after overnight fasting. One group was treated with intravenous injection (5 mg/kg) and the other group was treated orally (60 mg/kg). Blood was sampled in the intravenous group at 0th min, 5th min, 10th min, 20th min, 40th min, 1st h, 2nd h, 4th h, 6th h, 8th h, 12th h, 24th h, while the oral group at 5th min, 15th min, 30th min, 45th min, 1st h, 2nd h, 4th h, 6th h, 8th h, 12th h, 24th h. After 10 min centrifugation of plasma at 4500 rpm, the upper serum was taken and transferred to the corresponding EP tube, placed in a −40° C. freezer for assay.
Agilent 1100 series configuration: Agilent G1313A HPLC autosampler device, 150 mm×2.1 mm C18 Thermo column (particle size 3 μm) reversed-phase column, detection wavelength at 230 nm, column temperature at 30° C., mobile phase of acetonitrile/water (7:3), a flow rate at 0.2 ml/min, injection volume of 20 μl. The mass spectrometry (MS) combined was Thermo Finnigan TSQ Quantum triple quadrupole configurated with electrospray ionization (ESI) in the positive ion mode. The parameters of MS analysis were as follows: spray chamber voltage, 4.0 kv; heated capillary temperature, 350° C.; protective gas (nitrogen); 20 psi; auxiliary gas (nitrogen): 5 psi; collision gas (argon); pressure: 1.5 mmTorr.; Collision energy: CA 17 eV; FA and IFA were 19 eV: IS was 15 eV.
Paclitaxel was selected as an internal standard with a retention time of 3.07 min. Retention time of PCMI-31 was 4.21 min. MS detection condition to PCMI-31 was set as follows: 915→634 m/z; paclitaxel as an internal standard. Detection conditions: 876→308m/z. The concentration range of the standard curve of PCMI-31 was 5-10,000 ng/ml (γ^2>0.99) and the minimum detection limit was 5 ng/ml.
100 μL of plasma samples were taken, into which 100 μL of the internal standard (paclitaxel, 500 ng/ml acetonitrile solution) was added, followed by addition of 3 ml of ethyl acetate after well homogenized via vortex, after 5 min shaking, centrifuging for 8 min at a rotating speed of 4500 rpm. The supernatant was transferred to a clean EP tube with nitrogen to blow to dry under heating condition. After reconstitution with 120 μl mobile phase (CH3CN/H2O=7:3), the solution was centrifuged at 12,000 rpm for 3 min, 100 μl of supernatant was taken and transferred to an autosampler vial. After LC-MS/MS detection, statistical data and pharmacokinetic parameters were processed by Xcallbur® (version 1.3) software (Thermo Finnigan).

[4] = male, S.D., plasma, intravenous administration 5 mg/kg
[5] = male, S.D., plasma, oral administration 60 mg/kg

`CO[C@H]1C(=O)[C@]2(C)[C@@H](OC(=O)N(C)C)C[C@H]3OC[C@@]3(OC(C)=O)[C@H]2[C@H](OC(=O)c2ccccc2)[C@]2(O)C[C@H](OC(=O)[C@H](O)[C@@H](NC(=O)OC(C)(C)C)c3ccccc3)C(C)=C1C2(C)C` [PCMI-31] gave a Papp B→A ([1]; Caco-2) of 26 ×10⁻⁶ cm/s, an efflux ratio ([1]; Caco-2) of 1.73 and a Papp A→B ([1]; Caco-2, Papp A-B, Caco-2 cell line (21 days), bidirectional transport, Table 5) of 15 ×10⁻⁶ cm/s. The Papp A→B ([1]; Caco-2, Papp A-B, Mean, Caco-2, A-B, mean of two samples) was 10.6 ×10⁻⁶ cm/s, the Papp A→B ([1]; Caco-2, Papp A-B, Sample-01, Caco-2, A-B, Sample-01) was 11.2 ×10⁻⁶ cm/s and the Papp A→B ([1]; Caco-2, Papp A-B, Sample-02, Caco-2, A-B, Sample-02) was 9.91 ×10⁻⁶ cm/s. The Papp A→B ([1]; Caco-2, Papp A-to-B, Caco-2) was over 10 ×10⁻⁶ cm/s, the recovery ([1]; Mean, Caco-2, A-B, mean of two samples) was 86.8% and the recovery ([1]; Sample-01, Caco-2, A-B, Sample-01) was 83%. The recovery ([1]; Sample-02, Caco-2, A-B, Sample-02) was 90.6%, the “membrane permeability (in words)” value [2] was “highly permeable substrates; also recorded: highest membrane permeability” and the half-life ([3]; male, S.D., plasma, other: oral or intravenous administration, generally, oral or intravenous administration, read-out: half-life (converted)) was about 3 h. For the same compound, the AUC(0-t) ([3]; male, S.D., plasma, intravenous 5 mg/kg) was 3310 ± 1330 ng·h/mL, the AUC(0-inf) [3, 4] was 3320 ± 1330 ng·h/mL and the Cmax [3, 4] was 7990 ± 3470 ng/mL. For the same compound, the Tmax [3, 4] was 0 h, the MRT inf [3, 4] was 2.58 ± 0.87 h and the half-life ([3]; male, S.D., plasma, intravenous administration 5 mg/kg, read-out: t1/2 (converted)) was 3.21 ± 0.53 h. For the same compound, the AUC(0-t) ([3]; male, S.D., plasma, oral 60 mg/kg) was 4250 ± 2480 ng·h/mL, the AUC(0-inf) [3, 5] was 4270 ± 2490 ng·h/mL and the Cmax [3, 5] was 922 ± 561 ng/mL. For the same compound, the Tmax [3, 5] was 0.8 ± 0.2 h, the MRT inf [3, 5] was 4.33 ± 0.74 h and the half-life ([3]; male, S.D., plasma, oral administration 60 mg/kg, read-out: t1/2 (converted)) was 2.97 ± 0.55 h. The bioavailability ([3]; male, S.D., plasma, oral, 60 mg/kg, oral 60 mg/kg vs intravenous 5 mg/kg, read-out: F, absolute oral bioavailability) was 10.7% and the “F, absolute oral bioavailability” value ([3]; oral 60 mg/kg vs intravenous 5 mg/kg) was 10.71%.
